The record followed here is patent US20250189514A1 (priority 2022, published 2025).

Test [1] deals with α6/3β2β3 nAChR. The test is classed as cell-based, human.
Test [2] deals with α6/3β2β3 nAChR. How it is done:
In one embodiment, FLIPR assay is used to identify agonists of 6β2β3 nAChR (including chimeric α6/3β2β3 nAChR as described above) mediated calcium flux. In this assay, the recombinant cells are incubated with a calcium sensitive dye (such as Ca5), exposed to a test compound, and calcium flux is imaged by FLIPR^TETRA.
• Spin down cells at 300×G for 5 min, aspirate supernatant, and resuspend in 10 ml plating medium. • Seed 25,000 cells/well in 50 μL (5×10^5cells/mL). • Incubate plates for 24 hours at 30° C. with 5% CO2 in a humidified atmosphere. Day 4 FLPR Assay • Wash plate with plate washer (4 washes x 100 μL/wash) using compound dilution buffer, leaving 25 μl in each well. • Add 25 μl of 2× Ca5 dye to each well. • Incubate at room temperature for 1 hr. • Wash plate with plate washer (4 washes x 100 μL/wash) using compound dilution buffer, leaving 25 μL in each well.
• Transfer plates to FLIPR for compound addition. Single addition plate of 2× agonist (25 μL). Control wells for agonists will be in column 23 and 24. […] Negative control wells received buffer+vehicle (25 μL). Functional Expression of α6β2β3 nAChR

Read-outs that look alike come from different tables or passages of the source. Where no end group is shown, it is not given here.

Regarding `CCN1C[C@]2(COC(=O)c3ccccc3N3C(=O)C[C@H](C)C3=O)CC[C@H](OC)[C@@]34[C@@H]5C[C@H]6[C@H](OC)[C@@H]5[C@](O)(C[C@@H]6OC)[C@](O)([C@@H](OC)[C@H]23)[C@@H]14` [MLA], in the test on α6/3β2β3 nAChR [1], the “effect on nicotine-evoked calcium flux (FLIPR signal)” value is given as “decreases the nicotine-evoked calcium flux in a dose-dependent manner”.

For the compound `CN1CCCC1c1cccnc1` (stereo not shown) [nicotine], the “nicotine EC80” value in the test with α6/3β2β3 nAChR [2] (2nd addition in concentration response curve experiment) is recorded as 236 nm. The same compound came in with an EC80 nicotine in the test on α6/3β2β3 nAChR [2] (concentration used as agonist challenge in antagonist protocol) of 236 nM.

Turning to `CO[C@H]1CC=C2CCN3CCC4=C(CC(=O)OC4)[C@]23C1` [DHbE], in the test on α6/3β2β3 nAChR [1], the “IC100 DHBe” value worked out at 10 µM and the “effect on nicotine-evoked calcium flux (FLIPR signal)” value is “decreases the nicotine-evoked calcium flux in a dose-dependent manner”.

As to `CNC1(C)C2CCC(C2)C1(C)C` (stereo not shown) [mecamylamine], the “effect on nicotine-evoked calcium flux (FLIPR signal)” value in the test with α6/3β2β3 nAChR [1] (transfected HEK293T cells incubated at 30° C. for 24-48 hour, antagonist at various concentration 3 min, then nicotine EC80 3.5 min, FIGS. 2A-2D) is on record as “decreases the nicotine-evoked calcium flux in a dose-dependent manner”.

For the compound “α-conotoxin MII (GCCSNPVCHLEHSNLC; ends and bridges not checked; cysteine pairing not given here; UniProt P56636 49-64, looked up)”, the “effect on nicotine-evoked calcium flux (FLIPR signal)” value with α6/3β2β3 nAChR [1] is given as “decreases the nicotine-evoked calcium flux in a dose-dependent manner”.
